# Data taken from paper PMC10499915 (Scientific Reports, 2023).
# “Also recorded” adds a separate entry of the source. Square brackets hold non-standard residues; d marks the D form. Aun = NCCCCCCCCCCC(=O)O
# System: chymotrypsin
# Assay: chymotrypsin (Sigma–Aldrich), 1.25 µg of enzyme in 150 µl buffer; Tris·HCl 50 mM, pH 7.8
# Details: 37 °C, up to 24 h
row,Substance,cleaved bond
1,Ac-KRLKKIGKVLKWIAKIVGSI[Aun]-NH2 (SMILES CC[C@H](C)[C@H](NC(=O)[C@H](CO)NC(=O)CNC(=O)[C@@H](NC(=O)[C@@H](NC(=O)[C@H](CCCCN)NC(=O)[C@H](C)NC(=O)[C@@H](NC(=O)[C@H](Cc1c[nH]c2ccccc12)NC(=O)[C@H](CCCCN)NC(=O)[C@H](CC(C)C)NC(=O)[C@@H](NC(=O)[C@H](CCCCN)NC(=O)CNC(=O)[C@@H](NC(=O)[C@H](CCCCN)NC(=O)[C@H](CCCCN)NC(=O)[C@H](CC(C)C)NC(=O)[C@H](CCCNC(=N)N)NC(=O)[C@H](CCCCN)NC(C)=O)[C@@H](C)CC)C(C)C)[C@@H](C)CC)[C@@H](C)CC)C(C)C)C(=O)NCCCCCCCCCCC(N)=O),"Leu21-Lys22, first_seen, within a 30-min incubation; also recorded: Trp23-Ile24, first_seen, within a 30-min incubation; also recorded: Leu14-Lys15, after longer incubation times"
2,Oct-KRLKKIGKVLKWIAKIVGSI-NH2,"Leu21-Lys22, first_seen, within a 30-min incubation; also recorded: Trp23-Ile24, first_seen, within a 30-min incubation; also recorded: Leu14-Lys15, within a 30-min incubation"
3,Lau-KRLKKIGKVLKWIAKIVGSI-NH2,"Trp23-Ile24, after longer incubation times; also recorded: Leu21-Lys22, first_seen, within a 30-min incubation; also recorded: Leu14-Lys15, after longer incubation times"
4,Ac-KRLKKIGKVLKWI-NH2,"Leu21-Lys22, first_seen, within a 30-min incubation"
5,Ac-KRLKKIGKVLKWIAKIVGSI-NH2,"Leu21-Lys22, first_seen, within a 30-min incubation; also recorded: Leu14-Lys15, after longer incubation times; also recorded: Trp23-Ile24, after longer incubation times"
6,Ac-KRLKKIGKVUKWI-NH2,"Leu14-Lys15, within a 30-min incubation; also recorded: Trp23-Ile24, after longer incubation times"
7,Ac-KRLKKIGKVLKWIPPIVGSI-NH2,"Leu21-Lys22, first_seen, within a 30-min incubation"
8,Pal-KRLKKIGKVLKWIAKIVGSI-NH2,"Leu14-Lys15, after longer incubation times; also recorded: Leu21-Lys22, after longer incubation times; also recorded: Trp23-Ile24, after longer incubation times"
